Data on 1 substance can be found in US20200268705A1, “CABAZITAXEL COMPOSITION FOR INJECTION AND PREPARATION METHOD THEREFOR” (BIKA BIOTECHNOLOGY (GUANGZHOU) CO., LTD., priority 2018, published 2020).

A short description of data set [1]: Solubility of cabazitaxel in PEG300/SBE-β-CD/PVPK12/water solution system with additives. The format is physicochemical. Conditions: 700 mg/ml PEG300, 290 mg/ml SBE-β-CD, 80 mg/ml PVPK12, water, nitrogen. The text has this: In view of various defects of the prior art, the inventor of the present application breaks through the prejudice of the prior art, conducts reverse experiments on existing knowledge, reduces the amount of cyclodextrin and abandons the use of ethanol having strong stimulation as a solvent and Tween 80 having side effects.

The conditions of data set [2]: cited from earlier work.
Data set [3] is described as follows: Solubility of cabazitaxel in 40% SBE-β-CD aqueous solution. Format: physicochemical. The settings on record: found by the present inventors. The text has this: Cyclodextrin, a pharmaceutical excipient, has a hollow hydrophobic, stereoscopic chiral inner cavity; due to its structural characteristic of “inner hydrophobic, external hydrophilic”, it can encapsulate a variety of small organic molecules (substrates) having suitable space size to form a noncovalent host-guest complex (inclusion complex). Its most significant pharmaceutical function is to increase the water solubility of poorly soluble drugs and improve the stability of drugs. For example, the invention application No. CA2900508A1 (US20150325321A1) by Valery Alakhov et al. disclosed a composition comprising cabazitaxel and suifobutyl ether beta cyclodextrin (SBF-β-CD) in a weight ratio of 1:30 to 1:1000. […] Even if it can reach such concentration, it is difficult to prepare a cabazitaxel injection that meets the concentration specifications of commercial preparations.

For the substance “(1S,2S,3R,4S,7R,9S,10S,12R,15S)-4-acetyloxy-15-{[(2R,3S)-3-{[(tertbutoxy)carbonylamino]}-2-hydroxy-3-phenylpropanoyl]oxy}-1-hydroxy-9, 12-dimethoxy-10,14,17,17-tetramethyl-11-oxo-6-oxatetracyclo[11.3.1.0^3:10.0^4:7]heptadec-13-ene-2-yl benzoate [cabazitaxel]”, the solubility of cabazitaxel in data set [1] is at least 40 mg/mL; in data set [3] it was “about 1 mg/mL”. The “stability under alkaline conditions” value in data set [2] (alkaline conditions) is reported as “unstable under alkaline conditions”. Besides, in data set [2] (ethanol), the solubility in ethanol result is given as “soluble in ethanol”. Moreover, in data set [2] (water), the solubility in water entry is listed as “almost insoluble in water”.
